The species named for data set [1] is Mus musculus. Put plainly: Stability in mouse liver microsomes assessed as degradation rate per mg of protein. Type of data set: ADME.
Data set [2] relates to Jurkat. Put plainly: Inhibition of IL2 production in Jurkat T cells. Type of data set: functional, cell-based. Conditions: Homo sapiens.
The subject of data set [3] is Mus musculus. Put plainly: Inhibition of anti CD3-induced IL2 production in mice serum at 50 mg/kg, sc. Conditions: route subcutaneous. In kind it is functional.
The subject of data set [4] is Mus musculus. Description: Inhibition of anti CD3-induced IL2 production in mice serum at 50 mg/kg, sc after 1.75 hrs. Type of data set: functional. The conditions noted are these: route subcutaneous.
Data set [5] is described as follows: Half life in mice at 20 mg/kg, po. In kind it is ADME, organism-based. Also on record: dose 20 mg/kg, route oral. Conditions: mouse, in vivo.
Data set [6] is described as follows: Oral bioavailability in mice at 20 mg/kg, po. In kind it is ADME, organism-based. The conditions noted are these: mouse, in vivo.
The target in data set [7] is Tyrosine-protein kinase SYK (Homo sapiens, UniProt P43405). Put plainly: Inhibition of Syk.
For data set [8], the target named is Protein kinase C (PKC).
A short description of data set [9]: Mean residence time in mice at 10 mg/kg, iv. Type of data set: ADME, organism-based. Also on record: dose 10 mg/kg, route intravenous. The conditions noted are these: mouse, in vivo.
Data set [10] in a line: Volume of distribution in mice at 10 mg/kg, iv. Conditions: mouse, in vivo, read-out: Vss. In kind it is ADME, organism-based. Also on record: dose 10 mg/kg, route intravenous.
Data set [11] is described as follows: Tmax in mice at 20 mg/kg, po. The conditions noted are these: mouse, in vivo. Also on record: dose 20 mg/kg, route oral. In kind it is ADME, organism-based.
The nature of data set [12]: Half life in mice at 10 mg/kg, iv. In kind it is ADME, organism-based. Also on record: dose 10 mg/kg, route intravenous. Conditions: mouse, in vivo.
The nature of data set [13]: Cmax in mice at 20 mg/kg, po. Type of data set: ADME, organism-based. Also on record: dose 20 mg/kg, route oral. The conditions noted are these: mouse, in vivo.
Data set [14] in a line: Tmax in mice at 10 mg/kg, iv. Type of data set: ADME, organism-based. Also on record: dose 10 mg/kg, route intravenous. The conditions noted are these: mouse, in vivo.
The test system of data set [15] is EL4. Put plainly: cells. Conditions: Mus musculus.
Data set [16] is described as follows: Clearance in mice at 10 mg/kg, iv. The conditions noted are these: mouse, in vivo. Also on record: dose 10 mg/kg, route intravenous. Type of data set: ADME, organism-based.
The nature of data set [17]: Mean residence time in mice at 20 mg/kg, po. Type of data set: ADME, organism-based. Also on record: dose 20 mg/kg, route oral. Conditions: mouse, in vivo.
Data set [18] addresses T1, Tyrosine-protein kinase ITK/TSK (Homo sapiens, UniProt Q08881).
T1 sequence (Q08881 whole entry): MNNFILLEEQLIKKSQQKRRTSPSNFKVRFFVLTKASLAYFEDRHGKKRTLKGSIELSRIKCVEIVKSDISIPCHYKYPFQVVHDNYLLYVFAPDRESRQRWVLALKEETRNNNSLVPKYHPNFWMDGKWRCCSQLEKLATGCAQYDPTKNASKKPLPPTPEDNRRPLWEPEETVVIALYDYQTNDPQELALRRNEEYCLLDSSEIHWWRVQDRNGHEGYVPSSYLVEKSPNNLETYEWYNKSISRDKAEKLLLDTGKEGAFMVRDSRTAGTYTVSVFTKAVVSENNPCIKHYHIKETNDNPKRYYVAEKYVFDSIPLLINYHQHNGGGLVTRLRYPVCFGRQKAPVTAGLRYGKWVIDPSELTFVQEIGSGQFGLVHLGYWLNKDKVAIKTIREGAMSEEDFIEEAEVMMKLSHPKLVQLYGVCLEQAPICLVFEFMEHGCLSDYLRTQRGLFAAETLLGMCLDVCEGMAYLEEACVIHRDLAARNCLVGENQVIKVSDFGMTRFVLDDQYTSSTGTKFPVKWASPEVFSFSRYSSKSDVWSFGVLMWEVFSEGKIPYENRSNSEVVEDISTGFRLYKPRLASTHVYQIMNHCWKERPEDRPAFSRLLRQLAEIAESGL
Put plainly: Inhibition of Itk.

A value given as a limit tells only on which side of the number the result lay.

In the case of `COc1cc(C)c(Sc2cnc(NC(=O)C3CC3)s2)cc1C(=O)N1CCN(C(C)=O)CC1`, the Stability in data set [1] (mouse) is above 0.3 nmol/min/mg. Besides, the 50% inhibitory concentration (IC50) in [2] came out at 0.69 µM.
`COc1cc(C)c(Sc2cnc(NC(=O)c3ccc(OC(C)C)cc3)s2)cc1C(=O)N1CCN(C(C)=O)CC1`: in [2], the concentration for half-maximal inhibition (IC50) is 0.36 µM.
`COc1cc(C)c(Sc2cnc(NC(=O)c3ccc(CNC(C)C(C)(C)C)cc3)s2)cc1C(=O)N1CCN(C(C)=O)CC1` (stereo not drawn) displayed an inhibition in vivo at 50 mg/kg in data set [3] of 50%. The Activity in data set [4] turned out to be 1.89 µM. In addition, the values for the half-life in [5] and in data set [12] were 1.4 h and 1.3 h, respectively. In data set [6], this compound registered a bioavailability of 6.4%. In addition, the 50% inhibitory concentration (IC50) in [7] is above 50 µM; in [8], 24 µM; in [15], 0.07 µM. The results for the mean residence time (MRT) in [9] and in data set [17] were 1 h and 3.1 h, respectively. Moreover, the Vd in data set [10] was 7 L/kg. The Tmax amounted to 1 h in [11] and 3 min in data set [14]. In data set [13], this compound registered a Cmax of 69 nM. Further, the clearance in data set [16] stood at 116 mL/min/kg.
As for `CC(=O)N1CCN(C(=O)c2cc(Sc3cnc(Nc4ccccn4)s3)ccc2O)CC1`, in [2], the IC50 amounted to 2.18 µM.
With `CC(=O)N1CCN(C(=O)c2cc(Sc3cnc(Nc4cc(C)cc(C)n4)s3)ccc2O)CC1`, the IC50 in [2] worked out at 0.46 µM.
On the same count and under the same terms, for `CC(=O)N1CCN(C(=O)c2cccc(CSc3cnc(NC(=O)c4ccc(N(C)C)cc4)s3)c2)CC1` the value was 22 µM.
For `CN(CC(=O)O)C(=O)c1cc(Sc2cnc(Nc3cccc(Br)n3)s2)ccc1O`, the Stability in data set [1] (mouse) was below 0.1 nmol/min/mg. The half-inhibitory concentration (IC50) in [2] was above 10 µM.
Consider `O=C(O)C1CCN(C(=O)c2cc(Sc3cnc(Nc4cccc(Br)n4)s3)ccc2O)CC1`, for which the Stability in data set [1] (mouse) was below 0.1 nmol/min/mg. Also, the IC50 in data set [2] is above 50 µM.
In turn, `COc1cc(C)c(Sc2cnc(Nc3cc(C)cc(C)n3)s2)cc1C(=O)N1CCN(C(C)=O)CC1` yielded an IC50 in data set [2] of 0.23 µM.
Take `COc1cc(C)c(Sc2cnc(NC(=O)c3ccc(N(C)C)cc3)s2)cc1C(=O)N1CCN(C(C)=O)CC1`: the IC50 in data set [2] came out at 0.28 µM.
Regarding `COc1cc(C)c(Sc2cnc(NC(=O)C3CC3)s2)cc1C(=O)N1CCN(C(=O)CN(C)C)CC1`, in [1] (mouse), the Stability is 0.1 nmol/min/mg. The compound further had a concentration for half-maximal inhibition (IC50) in data set [2] of 0.21 µM.
With `CC(=O)N1CCN(C(=O)c2cccc(Sc3cnc(NC(=O)c4ccc(N(C)C)cc4)s3)c2C)CC1`, the IC50 in data set [18] is above 25 µM.
Regarding `CS(=O)(=O)NC(=O)C1CCCN(C(=O)c2cc(Sc3cnc(Nc4cccc(Br)n4)s3)ccc2O)C1` (stereo not drawn), in [1], the Stability was below 0.1 nmol/min. Also, the half-inhibitory concentration (IC50) in data set [2] is above 10 µM.
In the case of `CC(=O)N1CCN(C(=O)c2cccc(Sc3cnc(Nc4cccnc4)s3)c2)CC1`, the half-maximal inhibitory concentration (IC50) in data set [18] was above 50 µM.
`COCc1ccc(C(=O)Nc2ncc(Sc3cc(C(=O)N4CCN(C(C)=O)CC4)c(OC)cc3C)s2)cc1`: inhibition in data set [2] was half-maximal at 0.42 µM (IC50).
As to `CCNCc1ccc(C(=O)Nc2ncc(Sc3cc(C(=O)N4CCN(C(C)=O)CC4)c(OC)cc3C)s2)cc1`, half-maximal inhibition in data set [2] (IC50) was put at 3.4 µM.
As to `COc1cc(C)c(Sc2cnc(NC(=O)c3ccc[nH]3)s2)cc1C(=O)N1CCN(C(C)=O)CC1`, inhibition in data set [2] was half-maximal at 0.25 µM (IC50).
Consider `CC(=O)N1CCN(C(=O)c2cc(Sc3cnc(Nc4cccc(Br)n4)s3)ccc2O)CC1`, for which the Stability in [1] (mouse) was above 0.3 nmol/min/mg. Further, the 50% inhibitory concentration (IC50) in data set [2] came out at 0.37 µM.
For `COc1cc(C)c(Sc2cnc(NC(=O)C3CC3C(=O)O)s2)cc1C(=O)N1CCN(C(C)=O)CC1` (stereo not drawn), the Stability in data set [1] (mouse) is below 0.1 nmol/min/mg. The compound also came in with a half-inhibitory concentration (IC50) in data set [2] of 25.3 µM.
As for `CC(=O)N1CCN(C(=O)c2cccc(Sc3cnc(Nc4ccccn4)s3)c2)CC1`, the midpoint of inhibition in [2], the IC50, lay at 24 µM.
For the compound `CC(=O)N1CCN(C(=O)c2cc(CSc3cnc(NC(=O)c4ccc(CNC(C)C(C)(C)C)cc4)s3)cc(C)c2C)CC1` (stereo not drawn), the IC50 in data set [2] worked out at 0.7 µM.
For the compound `CCN1CCN(C(=O)c2cc(Sc3cnc(NC(=O)C4CC4)s3)c(C)cc2OC)CC1`, the Stability in data set [1] (mouse) was above 0.3 nmol/min/mg. It took 1 µM to reach half-maximal inhibition in data set [2] (IC50).
In the case of `O=C(O)C1CCCN(C(=O)c2cc(Sc3cnc(Nc4cccc(Br)n4)s3)ccc2O)C1` (stereo not drawn), in data set [1] (mouse), the Stability was below 0.1 nmol/min/mg. Besides, the concentration for half-maximal inhibition (IC50) in data set [2] is above 50 µM.
With `CNCc1ccc(C(=O)Nc2ncc(Sc3cc(C(=O)N4CCOCC4)c(OC)cc3C)s2)[nH]1`, the Stability in data set [1] (mouse) was 0.1 nmol/min/mg. For the same compound, the half-maximal inhibitory concentration (IC50) in data set [2] was found to be 0.26 µM.

Values taken from ChEMBL document CHEMBL1138957, “Discovery and SAR of 2-amino-5-(thioaryl)thiazoles as potent and selective Itk inhibitors” (Bioorg Med Chem Lett, 2006).
